Measurements taken from patent US8084502B2, “Use of agmatine for protection of retinal ganglion cells” (priority 2007, dated 2011).
Where a SMILES comes first, the peptide text is derived from it. The star is where a group is joined. Cbz = O=C(OCc1ccccc1)*; CH2F = FC*

Legend:
[1] = tested on: RGC-5; experiment: LDH assay, TNF-α-induced cell death; type: cell-based, rat
Experimental: The RGC-5 cell line, which is an RGC line developed from post-natal Sprague-Dawley rats, was grown in modified DMEM (Gibco) supplemented with 10% of heat inactivated fetal bovine serum (Gibco) and 100 U/mL of penicillin and 100 μg/mL of streptomycin (Gibco). The cells were passaged every 2 to 3 days and incubated at 37° C. in 5% of CO2 and air. At cultivation, the cells had the same morphology. For all experiments, cells were used at 80% of confluence.
After washing twice with PBS, cells were cultured in serum-free DMEM and treated with either 10 or 50 ng/mL of recombinant rat TNF-α (Chemicon) for up to 48 hours. The control cells were not exposed to TNF-α. 100 μM of agmatine was added to the culture medium at the start of injury as indicated.
Cell viability was quantified by measuring the amounts of LDH released from the injured cells after TNF-α administration. LDH release is expressed as a value relative to the value of 100, which is the maximum LDH release that occurs after freezing each culture at −70° C. overnight and then rapidly thawing, thus inducing nearly complete cell damage. All experiments were performed in at least quadruplicate, and repeated at least eight times using cell cultures derived from different platings.

[2] = tested on: caspase-3; experiment: Caspase-3 activity (colorimetric, Ac-DEVD-pNA cleavage) after hypoxia; type: cell-based, rat; conditions: hypoxia 24 hours; 100 μM of agmatine or 50 μM of Z-VAD-FMK
Experimental: The RGC-5 cell line, which is a RGC line developed from post-natal Sprague-Dawley rats, was grown in modified Dulbecco's Modified Eagle's Medium (DMEM; Gibco) supplemented with 10% of heat inactivated fetal bovine serum (Gibco) and 100 U/mL of penicillin and 100 μg/mL of streptomycin (Gibco). The cells were passaged every 2 to 3 days, and the cultures incubated at 37° C. in 5% of CO2 and air. […] For all experiments, cells were used at an 80% confluence. Cultures were transferred into a closed hypoxic chamber (Form a Scientific Co.) in which oxygen level (5% of O2, 5% of CO2, 90% of N2) and temperature (37° C.) were controlled. After washing twice with deoxygenated serum-free DMEM, cells were maintained in the hypoxic chamber. Control cells were not exposed to hypoxia. Agmatine or BDNF were added to the culture medium at the start of injury as indicated. Caspase-3 activity was measured using the CaspACE™ colorimetric assay system (Promega, Cat no. G7220) according to the manufacturer's instructions. Briefly, cells were harvested and resuspended in cell lysis buffer (10^8 cells/mL). […] After incubating at 37° C. for 4 hours, absorbance was measured using a microplate reader at 405 nm. Absorbance of each sample was determined by subtraction of the mean absorbance of the blank from that of each sample.

Compound | LDH release ([1]; 10 ng/mL of TNF-α alone, 24 hours) [%] | LDH release ([1]; 10 ng/mL of TNF-α alone, 48 hours) [%] | LDH release ([1]; 50 ng/mL of TNF-α alone, 24 hours) [%] | LDH release ([1]; 50 ng/mL of TNF-α alone, 48 hours) [%] | hypoxia-induced caspase-3 activity [2]
TNF-α | 7.04±3.26 | 10.16±1.77 | 13.41±6.20 | 17.00±1.92 | 
COC(=O)C[C@H](NC(=O)[C@H](C)NC(=O)[C@@H](NC(=O)OCc1ccccc1)C(C)C)C(=O)CF [Z-VAD-FMK, reference compound] (Cbz-Val-Ala-Asp(OMe)-CH2F) |  |  |  |  | equally suppressed
